Test results: patent US20110033946A1, “DETECTION OF SHORT-CHAIN FATTY ACIDS IN BIOLOGICAL SAMPLES” (HEMAQUEST PHARMACEUTICALS, INC., priority 2009, published 2011)

Experiment: Stock solution stability at approximately 4° C. (old vs new stock peak areas)
Format: physicochemical
Settings: for Stock solution stability, RE % (to New) of old stock peak area: approximately 4° C.
Protocol: The following LC-MS/MS conditions were applied for the analysis of underivatized sodium 2,2-dimethylbutyrate and DMV for stock solution stability analysis (2 to 3.5 month), and system suitability associated with these analyses: The following samples were also analyzed either in conjunction with one of the precision and accuracy runs or in one of the additional validation runs. Samples from six lots of control human plasma for specificity. Samples from six lots of control human plasma fortified with internal standard for specificity. Two concentration levels of unextracted QC-samples in triplicate (solvent standards) were analyzed for the evaluation of the recovery of sodium 2,2-dimethylbutyrate and DMV in human plasma. Two levels of QC samples (Low QC and High QC in triplicate) were subjected to three freeze/thaw cycles at approximately −70° C. prior to extraction to evaluate freeze/thaw stability. Two levels of QC samples (Low QC and High QC in triplicate) were placed on the bench top for approximately 17 hours prior to extraction for the evaluation of the bench top stability. Triplicate low QC samples and triplicate high QC samples were stored for one month and three months in a freezer at approximately −70° C., and then extracted and analyzed to evaluate long term stability in human plasma. Two levels of extracted QC samples (Low QC and High QC) were re-analyzed after approximately 71 hours in the autosampler at room temperature to evaluate the extract autosampler stability. Two levels of extracted QC samples (Low QC and High QC) were re-analyzed after approximately 8 hours in the freezer at approximately −20° C. to evaluate the extract freeze stability. Three aliquots of a dilution QC sample diluted 10-fold. Triplicate dilutions of the old stock solution (stored at approximately 4° C.) and new stock solutions prepared at intervals of two weeks and one month. Statistical calculations in the report tables were calculated from unrounded concentration values taken directly from the raw data. The concentration values were rounded for display purposes. Fresh stock solutions of sodium 2,2-dimethylbutyrate were prepared at intervals of two weeks and 1, 2, 3 and 3.5 months after the initial standard preparation. Similarly, the stability intervals for DMV were two weeks and 1, 2 and 3 months. The initial (or old) stock solutions and the fresh stock solutions were diluted into the calibration standard range and analyzed. The peak areas for the fresh (new) and old standard solutions were compared. Beginning with the 2-month stability analysis, sodium 2,2-dimethylbutyrate and DMV stock solutions were analyzed underivatized. This was done since the peak areas of both sodium 2,2-dimethylbutyrate and DMV varied among replicate derivatized preparations. Analyzing the standard solutions underivatized was a simpler procedure which gave more accurate and precise results

Stock solution stability, RE % (to New) of old stock peak area (1 Month Interval): 23.9% | Stock solution stability, RE % (to New) of old stock peak area (2 Month Interval, underivatized): 14.3% | Stock solution stability, RE % (to New) of old stock peak area (2 Week Interval): 16.7% | Stock solution stability, RE % (to New) of old stock peak area (3 Month Interval, underivatized): 17.8% | Stock solution stability, RE % (to New) of old stock peak area (~2 Month Interval, repeated with the 1 month stock solution as old, underivatized): −7.2% | Time stock solutions are stable (stock solution in acetonitrile/water stored in a refrigerator at approximately 4° C.): at least 2 months
SMILES: CCCC(C)(C)C(=O)O [DMV, 2,2-Dimethylvaleric acid, reference compound]
